From PubChem BioAssay AID1963825 (Molecular Pharmacology Branch, DTP, NCI, 2024)

Assay: Anticancer human tumor 997537-175-T-J1-PDC patient-derived colon adenocarcinoma cell line growth inhibition [POLQ]
Conditions: 997537-175-T-J1-PDC complex spheroid viability, combination with POLQ inhibitors; for IC50: curve of first compound; for viability, T/C: stronger effect = lower value
Procedure: Multicellular complex tumor spheroid response to Polymerase (POL) inhibitors (novobiocin, ART-558, RP6685) in combination with a variety of drugs and investigational agents in selected tumor cell lines
The POL inhibitors (novobiocin, ART-558, and RP6685) were evaluated both individually and in combination with standard of care and investigational anticancer small molecules within a complex spheroid model of solid tumors. . Complex spheroids include a stromal component modeled by human endothelial cells (HUVEC) and fibroblasts modeled by human mesenchymal stem cells (MSCs). The concentration ranges selected for each drug and investigational agent were based upon clinically achievable concentrations if the clinical Cmax of the agent was known.
Compounds. The drugs and investigational agents: novobiocin (NSC847541), ART-558 (NSC835418), RP-6685 (NSC848927), peposertib (NSC802822), ceralasertib (NSC780249), elimusertib (NSC800525), camonsertib (NSC841442), AZD-1390 (NSC803789), olaparib (NSC753686), talazoparib (NSC767125), rucaparib (NSC756644), sotorasib (NSC818433), MRTX-1133 (NSC836407), SN-38 (NSC673596), topotecan (NSC609699), epotoside (NSC141540), doxorubicin (NSC123127), gemcitabine (NSC613327), 5-fluorouracil (NSC19893), paclitaxel (NSC125973), vemurafenib (NSC761431), MSA-2 (NSC828583), SN-011 (NSC837082), adavosertib (NSC754352), prexasertib (NSC758257), carboplatin (NSC241240) and oxaliplatin (NSC266046), were obtained from the National Cancer Institute (NCI) Developmental Therapeutics Program Chemical Repository (21). The FDA-approved anticancer drug set is available from the Developmental Therapeutics Program at https://dtp.cancer.gov/organization/dscb/obtaining/. […] The stock solutions were prepared in dimethyl sulfoxide (DMSO, Sigma-Aldrich, St. Louis, MO, cat. D2650), except for the platinum compounds which were prepared in saline (Quality Biological, Gaithersburg, MD, cat. 114-055-101), at 800-fold the tested concentration and stored at -70 degrees C prior to their use. All drugs and investigational agents were tested over a range starting from a high concentration at or near the clinical Cmax and decreasing in half-log increments. If the clinical Cmax for an agent had not been determined, the highest concentration tested was 10 microM, except for SN-38, which was tested at a high concentration of 1 microM.
Cell Culture. All cells were maintained in an incubator at 37 degrees C and 5% CO2 with 95% humidity. The PDC lines were cultured according to standard operating procedures established by the NCI PDMR (https://pdmr.cancer.gov). Table 3 of the manuscript, lists the cell lines along with the number of the three cell types plated to form the mct-spheroids and media for tumor cell growth. After thawing, all PDC lines, except 997537-175-T-J1-PDC and 415267-285-R-J2-PDC, were cultured in Matrigel-coated flasks prepared with a working solution of 1X Ham's F-12 nutrient mix, without supplementation (Thermo Fisher Scientific, cat. 11765054), 100 U/mL penicillin-streptomycin (Thermo Fisher Scientific, cat. 15140122), and 2.5% Matrigel (Corning Inc., Corning, NY, cat. 354248) for the first three passages. The two PDC lines 997537-175-T-J1-PDC and 415267-285-R-J2-PDC were cultured on uncoated flasks. The 857933-349-R-J2-PDC line was cultured in 6C/Colon 1B media containing advanced DMEM/F-12 (Thermo Fisher Scientific, cat. 12634028), 10 mM HEPES (Thermo Fisher Scientific, cat. 15630080), 1X GlutaMAX supplement (Thermo Fisher Scientific, cat. 35050061), 0.1 mg/mL primocin (InvivoGen, San Diego, CA, cat. ant-pm-2), 10% defined fetal bovine serum, heat inactivated (HyClone Laboratories Inc., Logan, UT, cat. SH30070.03HI), 50% L-WRN conditioned media (ATCC, cat. CRL-3276), 1.25 mM N-Acetyl-L-cysteine (Sigma-Aldrich, cat. A9165), 10 mM nicotinamide (Sigma-Aldrich, cat. N0636), 1X B-27 supplement (Thermo Fisher Scientific, cat. 17504044), 1X N-2 supplement (Thermo Fisher Scientific, cat. […]
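Note: luminescence signal used as a surrogate for viable cells; spheroids exposed to drugs for seven days before readout.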

With `C=CCn1c(=O)c2cnc(Nc3ccc(N4CCN(C)CC4)cc3)nc2n1-c1cccc(C(C)(C)O)n1` + Cc1cccc(N(C)C(=O)C2C(O)CCN2c2nc(C)cc(C(F)(F)F)c2C#N)c1 the IC50 (second compound 0.0316 µM) was over 1 µM, the IC50 (second compound 0.1 µM) was over 1 µM and the IC50 (second compound 0.316 µM) was over 1 µM. The IC50 (second compound 1 µM) was over 1 µM, the IC50 (second compound 3.16 µM) was over 1 µM and the IC50 (second compound 10 µM) was over 1 µM. It also gave a viability, T/C (second compound 0.0316 µM, first compound 0.00316 µM) of 101%, a viability, T/C (second compound 0.0316 µM, first compound 0.01 µM) of 100% and a viability, T/C (second compound 0.0316 µM, first compound 0.0316 µM) of 93.9%. The viability, T/C (second compound 0.0316 µM, first compound 0.1 µM) was 90.9%, the viability, T/C (second compound 0.0316 µM, first compound 0.316 µM) was 100% and the viability, T/C (second compound 0.0316 µM, first compound 1 µM) was 76.2%. The viability, T/C (second compound 0.1 µM, first compound 0.00316 µM) was 99.4%, the viability, T/C (second compound 0.1 µM, first compound 0.01 µM) was 109% and the viability, T/C (second compound 0.1 µM, first compound 0.0316 µM) was 95%. It also gave a viability, T/C (second compound 0.1 µM, first compound 0.1 µM) of 88.8%, a viability, T/C (second compound 0.1 µM, first compound 0.316 µM) of 81.2% and a viability, T/C (second compound 0.1 µM, first compound 1 µM) of 64.2%. The viability, T/C (second compound 0.316 µM, first compound 0.00316 µM) was 89.4%, the viability, T/C (second compound 0.316 µM, first compound 0.01 µM) was 113% and the viability, T/C (second compound 0.316 µM, first compound 0.0316 µM) was 110%. The viability, T/C (second compound 0.316 µM, first compound 0.1 µM) was 91.9%, the viability, T/C (second compound 0.316 µM, first compound 0.316 µM) was 83.2% and the viability, T/C (second compound 0.316 µM, first compound 1 µM) was 75%. It also gave a viability, T/C (second compound 1 µM, first compound 0.00316 µM) of 118%, a viability, T/C (second compound 1 µM, first compound 0.01 µM) of 109% and a viability, T/C (second compound 1 µM, first compound 0.0316 µM) of 106%. For the same compound, the viability, T/C (second compound 1 µM, first compound 0.1 µM) was 99.8%, the viability, T/C (second compound 1 µM, first compound 0.316 µM) was 113% and the viability, T/C (second compound 1 µM, first compound 1 µM) was 84.9%. The viability, T/C (second compound 3.16 µM, first compound 0.00316 µM) was 93.2%, the viability, T/C (second compound 3.16 µM, first compound 0.01 µM) was 95.6% and the viability, T/C (second compound 3.16 µM, first compound 0.0316 µM) was 101%. For the same compound, the viability, T/C (second compound 3.16 µM, first compound 0.1 µM) was 96.1%, the viability, T/C (second compound 3.16 µM, first compound 0.316 µM) was 85.4% and the viability, T/C (second compound 3.16 µM, first compound 1 µM) was 59.6%. The viability, T/C (second compound 10 µM, first compound 0.00316 µM) was 111%, the viability, T/C (second compound 10 µM, first compound 0.01 µM) was 99.5% and the viability, T/C (second compound 10 µM, first compound 0.0316 µM) was 95.3%. For the same compound, the viability, T/C (second compound 10 µM, first compound 0.1 µM) was 93.6%, the viability, T/C (second compound 10 µM, first compound 0.316 µM) was 78.9% and the viability, T/C (second compound 10 µM, first compound 1 µM) was 94.8%.
